Experimental data taken from US5482943A, “(6-fluoro-1,2-benzisoxazol-3-yl)-1-piperidinyl-alkyl-(2, 9-disubstituted-4H-pyrido[1,2-a]pyrimidin-4-one) derivatives” (Janssen Pharmaceutica N.V., priority 1990, dated 1996).

Assays:
dopamine [1] = assay: Apomorphine antagonism in rats (inhibition of apomorphine-induced agitation and stereotypy); assay type: in vivo; conditions: Rattus norvegicus, read-out: ED50 for inhibition of apomorphine-induced symptoms
Excerpt: Apomorphine Antagonism in Rats
The test procedure is described in Arch. Int. Pharmacodyn. […] In Table 1 are listed the ED50 values (mg/kg) for inhibition of apomorphine-induced symptoms obtained with compound (1) and the subsequent apomorphine challenge at different intervals (time).

dopamine [2] = assay: Amphetamine antagonism in rats (agitation and oxygen hyperconsumption); assay type: in vivo; conditions: Rattus norvegicus, 0.75 h, compound sc, after 45 min amphetamine 2.5 mg/kg sc
Procedure: Amphetamine Antagonism in Rats
This test procedure is described in Industrial Pharmacology, Part II, Antidepressants, eds, S. Fielding and H. Lal, p. 125-141, Futura Publishing Company (1975). Solvent (controls) or the test compound (1) were injected sc, followed after 45 min by amphetamine (2.5 mg/kg, sc). Starting 15 min after the amphetamine injection, agitation and consumption of oxygen were evaluated every 15 min over a period of 1 hour. Agitation was scored 3 (pronounced), 2 (moderate), 1 (slight) and 0 (absent), the total score maximally being 4×3=12. Oxygen consumption was measured on a mercury manometer simultaneously. Significant inhibition required a total score for agitation of less than 11 (0.3% in controls) or a final scale reading for oxygen consumption of less than 105 Hg units (1.8% in controls; mean=118 units). Blockade of amphetamine-induced agitation was considered complete at a total score of less than 4 and that of oxygen consumption at a scale reading of less than 90 Hg units (i.e. the agitation score and oxygen consumption level of normal rats which is never observed in amphetamine-treated controls). Listed are the ED50 values (mg/kg) obtained with compound (1) and the subsequent amphetamine challenge.

dopamine [3] = assay: Apomorphine antagonism in dogs (absence of apomorphine-induced emesis); assay type: in vivo, dog; conditions: Canis lupus familiaris
Procedure: Apomorphine Antagonism in Dogs
This test is described in Psychopharmacol. 78, 210-213 (1982) and provides--besides a measure of the potency--a good measure of the duration of action of the tested compounds as dopamine antagonists. Apomorphine (0.31 mg/kg, sc; 4 times the ED95) induced emesis in all control dogs. At different time intervals before the apomorphine challenge, the dogs were pretreated with different doses (iv, sc or po) of the test compound (1). Complete absence of emesis for 1 hour after the challenge was adopted as the criterion for apomorphine antagonism in dogs. Listed are the ED50 values (mg/kg) obtained with compound (1) at different intervals after iv, sc or po administration.

`Cc1nc2c(C)cccn2c(=O)c1CCN1CCC(c2noc3cc(F)ccc23)CC1` [Compound 1, 3-[2-[4-(6-fluoro-1,2-benzisoxazol-3-yl)-1-piperidinyl]ethyl]-2,9-dimethyl-4H-pyrido[1,2-a]-pyrimidin-4-one] was tested, and the ED50 (dopamine [1]; Time 0.5 between compound and apomorphine challenge (1.25 mg/kg iv)) was 21 µg/kg, the ED50 (dopamine [1]; Time 1 between compound and apomorphine challenge (1.25 mg/kg iv)) was 18 µg/kg and the ED50 (dopamine [1]; Time 2 between compound and apomorphine challenge (1.25 mg/kg iv)) was 32 µg/kg. For the same molecule, the ED50 (dopamine [1]; Time 4 between compound and apomorphine challenge (1.25 mg/kg iv)) was 68 µg/kg, the ED50 (dopamine [1]; Time 8 between compound and apomorphine challenge (1.25 mg/kg iv)) was 290 µg/kg and the ED50 (dopamine [2]; blockade: agitation score <4, read-out: ED50, blockade of amphetamine-induced agitation) was 64 µg/kg. The ED50 (dopamine [2]; blockade: scale reading <90 Hg units, read-out: ED50, blockade of oxygen hyperconsumption) was 190 µg/kg, the ED50 (dopamine [2]; inhibition: agitation score <11, read-out: ED50, inhibition of amphetamine-induced agitation) was 14 µg/kg and the ED50 (dopamine [2]; inhibition: scale reading <105 Hg units, read-out: ED50, inhibition of oxygen hyperconsumption) was 57 µg/kg. It also gave an ED50 (dopamine [3]; iv, 0.5 h before apomorphine 0.31 mg/kg sc, read-out: ED50 (iv)) of 1.2 µg/kg, an ED50 (dopamine [3]; iv, 1 h before apomorphine 0.31 mg/kg sc, read-out: ED50 (iv)) of 1.1 µg/kg and an ED50 (dopamine [3]; iv, 2 h before apomorphine 0.31 mg/kg sc, read-out: ED50 (iv)) of 1.2 µg/kg. The ED50 (dopamine [3]; iv, 4 h before apomorphine 0.31 mg/kg sc, read-out: ED50 (iv)) was 0.79 µg/kg, the ED50 (dopamine [3]; iv, 8 h before apomorphine 0.31 mg/kg sc, read-out: ED50 (iv)) was 0.89 µg/kg and the ED50 (dopamine [3]; iv, 16 h before apomorphine 0.31 mg/kg sc, read-out: ED50 (iv)) was 1.2 µg/kg. For the same molecule, the ED50 (dopamine [3]; iv, 32 h before apomorphine 0.31 mg/kg sc, read-out: ED50 (iv)) was 2.9 µg/kg, the ED50 (dopamine [3]; po, 0.5 h before apomorphine 0.31 mg/kg sc, read-out: ED50 (po)) was 5 µg/kg and the ED50 (dopamine [3]; po, 1 h before apomorphine 0.31 mg/kg sc, read-out: ED50 (po)) was 1.5 µg/kg. For the same molecule, the ED50 (dopamine [3]; po, 2 h before apomorphine 0.31 mg/kg sc, read-out: ED50 (po)) was 0.89 µg/kg, the ED50 (dopamine [3]; po, 4 h before apomorphine 0.31 mg/kg sc, read-out: ED50 (po)) was 1.2 µg/kg and the ED50 (dopamine [3]; po, 8 h before apomorphine 0.31 mg/kg sc, read-out: ED50 (po)) was 0.99 µg/kg. For the same molecule, the ED50 (dopamine [3]; po, 16 h before apomorphine 0.31 mg/kg sc, read-out: ED50 (po)) was 2.4 µg/kg, the ED50 (dopamine [3]; po, 32 h before apomorphine 0.31 mg/kg sc, read-out: ED50 (po)) was 6.3 µg/kg and the ED50 (dopamine [3]; sc, 0.5 h before apomorphine 0.31 mg/kg sc, read-out: ED50 (sc)) was 4.5 µg/kg. The ED50 (dopamine [3]; sc, 1 h before apomorphine 0.31 mg/kg sc, read-out: ED50 (sc)) was 2.4 µg/kg, the ED50 (dopamine [3]; sc, 2 h before apomorphine 0.31 mg/kg sc, read-out: ED50 (sc)) was 1.4 µg/kg and the ED50 (dopamine [3]; sc, 4 h before apomorphine 0.31 mg/kg sc, read-out: ED50 (sc)) was 0.89 µg/kg. For the same molecule, the ED50 (dopamine [3]; sc, 8 h before apomorphine 0.31 mg/kg sc, read-out: ED50 (sc)) was 1.2 µg/kg, the ED50 (dopamine [3]; sc, 16 h before apomorphine 0.31 mg/kg sc, read-out: ED50 (sc)) was 2.2 µg/kg and the ED50 (dopamine [3]; sc, 32 h before apomorphine 0.31 mg/kg sc, read-out: ED50 (sc)) was 4.5 µg/kg.
